Measured values published in patent publication US20170298052A1, “SUBSTITUTED OXOPYRIDINE DERIVATIVES” (BAYER PHARMA AKTIENGESELLSCHAFT, priority 2014, published 2017).

Key:
human plasma kallikrein = human plasma kallikrein (Homo sapiens, UniProt P03952); experiment: Determination of the plasma kallikrein activity (fluorogenic peptide substrate, AMC cleavage); type: biochemical; conditions: plasma kallikrein from Kordia 0.6 nM; substrate H-Pro-Phe-Arg-AMC; 30 min at 22° C.; read-out: IC50 [nM] (Table B, plasma kallikrein inhibition)
Procedure: (§1) To determine the plasma kallikrein inhibition of the substances according to the invention, a biochemical test system is used which utilizes the reaction of a peptidic plasma kallikrein substrate to determine the enzymatic activity of human plasma kallikrein. Here, plasma kallikrein cleaves from the peptic plasma kallikrein substrate the C-terminal aminomethylcoumarin (AMC), the fluorescence of which is measured. The determinations are carried out in microtitre plates.
Test substances are dissolved in dimethyl sulphoxide and serially diluted in dimethyl sulphoxide (3000 μM to 0.0078 μM; resulting final concentrations in the test: 50 μM to 0.00013 μM). 1 μl of the diluted substance solutions is placed into each of the wells of white microtitre plates from Greiner (384 wells). 20 μl of assay buffer (50 mM Tris/HCl pH 7.4; 100 mM sodium chloride solution; 5 mM of calcium chloride solution; 0.1% of bovine serum albumin) and 20 μl of plasma kallikrein from Kordia (0.6 nM in assay buffer) are then added successively. After 15 min of incubation, the enzyme reaction is started by addition of 20 μl of the substrate H-Pro-Phe-Arg-AMC dissolved in assay buffer (10 μM in assay buffer) from Bachem, the mixture is incubated at room temperature (22° C.) for 30 min and fluorescence is then measured (excitation: 360 nm, emission: 460 nm). The measured emissions of the test batches with test substance are compared to those of control batches without test substance (only dimethyl sulphoxide instead of test substance in dimethyl sulphoxide), and IC50 values are calculated from the concentration/activity relationships.

human factor XIa = target: T1, human factor XIa (Homo sapiens, UniProt P03951); experiment: Measurement of FXIa inhibition (fluorogenic peptide substrate, AMC cleavage); type: biochemical; conditions: factor XIa from Kordia 0.45 nM; substrate Boc-Glu(OBzl)-Ala-Arg-AMC; 30 min at 22° C.
T1 construct: purchased Kordia
Procedure: as §1, with “The factor XIa” for “To determine the plasma kallikrein”, “invention is determined using” for “invention,”, “system” for “system is used”, “factor XIa” for “plasma kallikrein”, “factor XIa.” for “plasma kallikrein.”
1 μl of the diluted substance solutions is placed into each of the wells of white microtitre plates from Greiner (384 wells). […] After 15 min of incubation, the enzyme reaction is started by addition of 20 μl of the factor XIa substrate Boc-Glu(OBzl)-Ala-Arg-AMC dissolved in assay buffer (10 μM in assay buffer) from Bachem, the mixture is incubated at room temperature (22° C.) for 30 min and fluorescence is then measured (excitation: 360 nm, emission: 460 nm). The measured emissions of the test batches with test substance are compared to those of control batches without test substance (only dimethyl sulphoxide instead of test substance in dimethyl sulphoxide), and IC50 values are calculated from the concentration/activity relationships.

Sequence of human plasma kallikrein (P03952 391-638 limits assumed): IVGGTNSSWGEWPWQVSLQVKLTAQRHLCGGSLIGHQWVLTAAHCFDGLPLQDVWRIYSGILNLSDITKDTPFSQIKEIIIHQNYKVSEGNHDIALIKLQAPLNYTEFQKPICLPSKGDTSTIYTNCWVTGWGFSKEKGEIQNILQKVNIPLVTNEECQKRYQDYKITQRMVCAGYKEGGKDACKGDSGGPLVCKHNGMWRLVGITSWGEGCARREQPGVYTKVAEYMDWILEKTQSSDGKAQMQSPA
Sequence of human plasma kallikrein (P03952 20-390 partner limits assumed): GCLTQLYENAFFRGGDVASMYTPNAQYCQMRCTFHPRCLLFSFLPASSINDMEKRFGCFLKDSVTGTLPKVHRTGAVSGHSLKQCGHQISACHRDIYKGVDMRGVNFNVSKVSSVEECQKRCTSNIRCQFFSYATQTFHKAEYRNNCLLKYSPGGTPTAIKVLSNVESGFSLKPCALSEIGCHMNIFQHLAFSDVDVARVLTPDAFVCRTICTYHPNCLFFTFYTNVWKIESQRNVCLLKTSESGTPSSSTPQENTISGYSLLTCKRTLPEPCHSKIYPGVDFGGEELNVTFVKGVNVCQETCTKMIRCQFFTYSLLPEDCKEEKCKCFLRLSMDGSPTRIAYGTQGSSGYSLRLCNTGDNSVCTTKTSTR
T1 sequence (P03951 388-625 limits assumed): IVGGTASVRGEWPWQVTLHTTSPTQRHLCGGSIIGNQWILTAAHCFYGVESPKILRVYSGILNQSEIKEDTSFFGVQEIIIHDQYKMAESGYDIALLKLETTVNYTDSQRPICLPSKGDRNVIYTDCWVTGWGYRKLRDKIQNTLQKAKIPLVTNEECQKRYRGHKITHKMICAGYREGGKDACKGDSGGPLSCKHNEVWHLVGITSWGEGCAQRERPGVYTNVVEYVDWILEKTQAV
T1 sequence (P03951 19-387 partner limits assumed): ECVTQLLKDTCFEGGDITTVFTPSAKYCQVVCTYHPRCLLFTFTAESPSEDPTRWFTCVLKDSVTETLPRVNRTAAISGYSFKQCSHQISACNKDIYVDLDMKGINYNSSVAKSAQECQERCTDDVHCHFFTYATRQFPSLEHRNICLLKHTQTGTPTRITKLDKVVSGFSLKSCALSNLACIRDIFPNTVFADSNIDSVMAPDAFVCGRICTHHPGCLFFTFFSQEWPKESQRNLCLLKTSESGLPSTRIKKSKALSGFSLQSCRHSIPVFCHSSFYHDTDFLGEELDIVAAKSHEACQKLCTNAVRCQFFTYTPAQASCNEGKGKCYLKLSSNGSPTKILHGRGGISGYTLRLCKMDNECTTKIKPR

SMILES	IC50 (human plasma kallikrein) [nM]	IC50 (human factor XIa) [nM]
CNC(=O)c1ccc(NC(=O)C(Cc2ccn(C)n2)n2cc(OC)c(-c3cc(C)ccc3C#N)cc2=O)cc1F (racemic) [Example 44, 4-({2-[4-(2-Cyano-5-methylphenyl)-5-methoxy-2-oxopyridin-1(2H)-yl]-3-(1-methyl-1H-pyrazol-3-yl)propanoyl}amino)-2-fluoro-N-methylbenzamide]	12	19
CCC(C(=O)Nc1ccc(C(=O)NC)c(F)c1)n1cc(OC)c(-c2cc(Cl)ccc2C#N)cc1=O (stereo not drawn) [Example 8]	30	12
COc1cn(C(Cc2cocn2)C(=O)Nc2ccc(C(N)=O)c(F)c2)c(=O)cc1-c1cc(Cl)ccc1C#N (stereo not drawn) [Example 3]	33	43
COc1cn(C(Cc2ccncc2)C(=O)Nc2ccc(C(N)=O)c(F)c2)c(=O)cc1-c1cc(Cl)ccc1C#N (single isomer, unassigned) [Example 29, 4-({2-[4-(5-Chloro-2-cyanophenyl)-5-methoxy-2-oxopyridin-1(2H)-yl]-3-(pyridin-4-yl)propanoyl}amino)-2-fluorobenzamide]	2.7	5.1
N#Cc1ccc(Cl)cc1-c1cc(=O)n(C(C[C@@H]2CCCCO2)C(=O)Nc2ccc(C(N)=O)c(F)c2)cc1Cl (stereo partly drawn) [Example 14]	210	25
COc1cn(C(Cc2ccncc2)C(=O)Nc2ccc(C(N)=O)c(F)c2)c(=O)cc1-c1cc(Cl)ccc1C#N (stereo not drawn) [Example 10]	7	9
COc1cn(C(CCOCC(F)F)C(=O)Nc2ccc(C(N)=O)c(F)c2)c(=O)cc1-c1cc(Cl)ccc1C#N (racemic) [Example 22, 4-({2-[4-(5-Chloro-2-cyanophenyl)-5-methoxy-2-oxopyridin-1(2H)-yl]-4-(2,2-difluoroethoxy)-butanoyl}amino)-2-fluorobenzamide]	12	21
N#Cc1ccc(Cl)cc1-c1cc(=O)n(C(Cc2cocn2)C(=O)Nc2ccc(C(N)=O)c(F)c2)cc1Cl (stereo not drawn) [Example 2]	260	190
COc1cn(C(Cc2ccn(C)n2)C(=O)Nc2ccc(C(N)=O)c(F)c2)c(=O)cc1-c1cc(C)ccc1C#N (racemic) [Example 43, 4-({2-[4-(2-Cyano-5-methylphenyl)-5-methoxy-2-oxopyridin-1(2H)-yl]-3-(1-methyl-1H-pyrazol-3-yl)propanoyl}amino)-2-fluorobenzamide]	8.3	12
COc1cn(C(Cc2cccnc2)C(=O)Nc2ccc(C(N)=O)c(F)c2)c(=O)cc1-c1cc(Cl)ccc1C#N (stereo not drawn) [Example 9]	6	11
COc1cn(C(CCOC(C)(C)C)C(=O)Nc2ccc(C(N)=O)c(F)c2)c(=O)cc1-c1cc(Cl)ccc1C#N (racemic) [Example 21, 4-({4-tert-Butoxy-2-[4-(5-chloro-2-cyanophenyl)-5-methoxy-2-oxopyridin-1(2H)-yl]butanoyl}amino)-2-fluorobenzamide]	6.8	7.4
CCC(C(=O)Nc1ccc(C(=O)NC)cc1)n1cc(OC)c(-c2cc(Cl)ccc2C#N)cc1=O (racemic) [Example 26, 4-({2-[4-(5-chloro-2-cyanophenyl)-5-methoxy-2-oxopyridin-1(2H)-yl]butanoyl}amino)-N-methylbenzamide]	20	20
COc1cn(C(Cc2coc(C)n2)C(=O)Nc2ccc(C(N)=O)c(F)c2)c(=O)cc1-c1cc(Cl)ccc1C#N (racemic) [Example 41, 4-({2-[4-(5-Chloro-2-cyanophenyl)-5-methoxy-2-oxopyridin-1(2H)-yl]-3-(2-methyl-1,3-oxazol-4-yl)-propanoyl}amino)-2-fluorobenzamide]	21	28
COCCC(C(=O)Nc1ccc(C(N)=O)c(F)c1)n1cc(OC)c(-c2cc(OC)ccc2C#N)cc1=O (racemic) [Example 23, 4-({2-[4-(2-Cyano-5-methoxyphenyl)-5-methoxy-2-oxopyridin-1(2H)-yl]-4-methoxybutanoyl}amino)-2-fluorobenzamide]	310	170
N#Cc1ccc(Cl)cc1-c1cc(=O)n(C(Cc2cnco2)C(=O)Nc2ccc(C(N)=O)c(F)c2)cc1Cl (stereo not drawn) [Example 4]	140	52
COc1cn(C(Cc2ccccn2)C(=O)Nc2ccc(C(N)=O)c(F)c2)c(=O)cc1-c1cc(Cl)ccc1C#N (stereo not drawn) [Example 12]	10	11
COc1cn(C(Cc2nnc(C)o2)C(=O)Nc2ccc(C(N)=O)c(F)c2)c(=O)cc1-c1cc(Cl)ccc1C#N (racemic) [Example 35, 4-({2-[4-(5-Chloro-2-cyanophenyl)-5-methoxy-2-oxopyridin-1(2H)-yl]-3-(5-methyl-1,3,4-oxadiazol-2-yl)propanoyl}amino)-2-fluorobenzamide]	7.3	12
CNC(=O)c1ccc(NC(=O)C(Cc2ccccn2)n2cc(OC)c(-c3cc(Cl)ccc3C#N)cc2=O)cc1F (racemic) [Example 30, 4-({2-[4-(5-Chloro-2-cyanophenyl)-5-methoxy-2-oxopyridin-1(2H)-yl]-3-(pyridin-2-yl)propanoyl}amino)-2-fluoro-N-methylbenzamide]	8.2	9.7
N#Cc1ccc(Cl)cc1-c1cc(=O)n(C(Cc2ccccn2)C(=O)Nc2ccc(C(N)=O)c(F)c2)cc1Cl (stereo not drawn) [Example 13]	110	63
CNC(=O)c1ccc(NC(=O)C(C[C@@H]2CCCCO2)n2cc(Cl)c(-c3cc(Cl)ccc3C#N)cc2=O)cc1F (stereo partly drawn) [Example 15]	260	28
COc1cn(C(Cc2noc(C)n2)C(=O)Nc2ccc(C(N)=O)c(F)c2)c(=O)cc1-c1cc(Cl)ccc1C#N (racemic) [Example 33, 4-({2-[4-(5-Chloro-2-cyanophenyl)-5-methoxy-2-oxopyridin-1(2H)-yl]-3-(5-methyl-1,2,4-oxadiazol-3-yl)propanoyl}amino)-2-fluorobenzamide]	10	15
COc1cn(C(CCOC2CCC2)C(=O)Nc2ccc(C(N)=O)c(F)c2)c(=O)cc1-c1cc(Cl)ccc1C#N (racemic) [Example 20, 4-({2-[4-(5-Chloro-2-cyanophenyl)-5-methoxy-2-oxopyridin-1(2H)-yl]-4-(cyclobutyloxy)-butanoyl}amino)-2-fluorobenzamide]	6.1	7.4
COc1cn(C(Cc2cc(C)on2)C(=O)Nc2ccc(C(N)=O)c(F)c2)c(=O)cc1-c1cc(Cl)ccc1C#N (racemic) [Example 37, 4-({2-[4-(5-Chloro-2-cyanophenyl)-5-methoxy-2-oxopyridin-1(2H)-yl]-3-(5-methyl-1,2-oxazol-3-yl)propanoyl}amino)-2-fluorobenzamide]	6.2	12
COc1cn(C(Cc2ccccn2)C(=O)Nc2ccc(C(N)=O)c(F)c2)c(=O)cc1-c1cc(Cl)ccc1F (stereo not drawn) [Example 17]	230	290
